Experimental data from patent US8470822B2, “Folate mimetics and folate-receptor binding conjugates thereof” (Purdue Research Foundation, priority 2001, dated 2013).
Where “and” joins values, the source holds several entries; their conditions need not be identical. Equal entries are not always repeated.

Tests used:
[1] = HPLC analysis of stability of the isolated radiometal complex; type: physicochemical; settings: room temperature
Protocol: The major radioactive HPLC peak, eluting with a retention time of 14.1 minutes, was collected. […] HPLC conditions: Solvent A=56 mM NH4OAc in water; Solvent B═CH3CN. Flow rate=1 mL/min on 4.6×250 mm C18 reverse-phase column. Linear gradient conditions: 5% B at zero minutes, ramping to 25% B at 25 minutes, then ramping to 60% B at 27 minutes and 100% B at 30 minutes.
HPLC-purified ^64Cu-CY4-036 was removed from the HPLC solvents by solid-phase extraction. A C18 Sep-Pak Light solid phase extraction cartridge (Millipore, Inc.) was conditioned by washing with ethanol followed by water. The HPLC-purified ^64Cu-CY4-036 was loaded onto the C18 Sep-Pak after dilution with water to 5% acetonitrile, the Sep-Pak was washed with 20 mL water, and the ^64Cu-CY4-036 product recovered by fractional elution with ethanol. The resulting ethanol solution of ^64Cu-CY4-036 was evaporated to dryness under a stream of N2 at room temperature, and the ^64Cu-CY4-036 was reconstituted in water. Analytical HPLC confirmed the radiochemical purity, and stability, of the isolated ^64Cu-CY4-036 product. HPLC conditions: Solvent A=53 mM NH4OAc in water; Solvent B═CH3CN. Flow rate=1 mL/min on 4.6×250 mm C18 reverse-phase analytical column. Linear gradient conditions: 5% B at zero minutes, ramping to 25% B at 25 minutes, then ramping to 60% B at 27 minutes and 100% B at 30 minutes.

[2] = tested on: folate-receptor-positive human KB cell tumor xenografts; experiment: Biodistribution of 111In radiotracer in KB tumor-bearing athymic mice after intravenous administration; type: in vivo; settings: for Percentage of Injected 111In Dose Per Organ (Tissue): Muscle: muscle assumed 42% of body mass
Protocol: Our primary animal model for evaluation of the biodistribution and pharmacokinetics of folate-receptor-targeted radiopharmaceuticals has been athymic mice bearing subcutaneously implanted folate-receptor-positive human KB cell tumors. […] After 3 weeks on folate-free diet, mouse serum folate levels drop to 25±7 nM from the initial 720±260 nM serum folate level when the animals are fed normal rodent chow. This dietary intervention is believed to be a reasonable manipulation of the animal model, since the mice would have serum folate levels only slightly higher than the folate concentration of normal human serum. Thus, in these mouse biodistribution studies the radiotracer is competing for tumor folate receptors with physiologically relevant concentrations of endogenous unlabeled serum folate.
The substantial retention of ^111In in the kidneys is fully consistent with the binding of ^111In-CYK4-013 to tissue folate receptors, since the renal proximal tubule is a known normal tissue site of folate receptor expression. […] The behavior of the ^111In-CYK4-013 radiopharmaceutical in this animal model (Table 2) is very similar to that observed for ^111In-DTPA-Folate (Table 3).
Results. Similar to ^111In-DTPA-Folate, ^111In-CYK4-013 selectively localized in the folate-receptor-positive tumor xenografts, and afforded prolonged tumor retention of ^111In (5.4±0.8; 5.5±1.1; and 3.6±0.6% ID/g at 1 hour, 4 hours, and 24 hours, respectively) (Table 2). […] Blockable binding was also observed in the kidneys, where the folate receptor occurs in the proximal tubules.

[3] = 1 Hour after intravenous administration
[4] = 4 Hours after intravenous administration
[5] = 4 Hours, Blocked: co-injection of folic acid dihydrate 4.1 ± 0.4 mg/kg
[6] = 24 Hours after intravenous administration

time the isolated HPLC peak remains stable [1]: at least 7 days
Percentage of Injected 111In Dose Per Gram (Tissue Wet Mass): Blood [2, 3]: 0.18 ± 0.01 % ID/g
Percentage of Injected 111In Dose Per Gram (Tissue Wet Mass): Heart [2, 3]: 3.5 ± 0.4 % ID/g
Percentage of Injected 111In Dose Per Gram (Tissue Wet Mass): Kidney (one) [2, 3]: 61 ± 5 % ID/g
Percentage of Injected 111In Dose Per Gram (Tissue Wet Mass): Liver & Gall Bladder [2, 3]: 4.3 ± 0.7 % ID/g
Percentage of Injected 111In Dose Per Gram (Tissue Wet Mass): Lungs [2, 3]: 1.5 ± 0.2 % ID/g
Percentage of Injected 111In Dose Per Gram (Tissue Wet Mass): Muscle [2, 3]: 3.5 ± 0.5 % ID/g
Percentage of Injected 111In Dose Per Gram (Tissue Wet Mass): Spleen [2, 3]: 0.31 ± 0.09 % ID/g
Percentage of Injected 111In Dose Per Gram (Tissue Wet Mass): Stomach, Intestines & Contents [2, 3]: 1.7 ± 0.2 % ID/g
Percentage of Injected 111In Dose Per Gram (Tissue Wet Mass): Tumor [2, 3]: 5.4±0.8 % ID/g
Percentage of Injected 111In Dose Per Organ (Tissue): Liver & Gall Bladder [2, 3]: 6.8 ± 1.3 Percentage of Injected 111In D
Percentage of Injected 111In Dose Per Organ (Tissue): Stomach, Intestines & Contents [2, 3]: 5.8 ± 0.5 Percentage of Injected 111In D
Tumor/blood ratio [2, 3]: 30 ± 5
Tumor/kidney ratio [2, 3]: 0.088 ± 0.013
Tumor/liver ratio [2, 3]: 1.3 ± 0.4
Tumor/muscle ratio [2, 3]: 1.6 ± 0.4
Percentage of Injected 111In Dose Per Gram (Tissue Wet Mass): Blood [2, 4]: 0.050 ± 0.009 % ID/g
Percentage of Injected 111In Dose Per Gram (Tissue Wet Mass): Heart [2, 4]: 2.9 ± 0.9 % ID/g
Percentage of Injected 111In Dose Per Gram (Tissue Wet Mass): Kidney (one) [2, 4]: 81 ± 7 % ID/g
Percentage of Injected 111In Dose Per Gram (Tissue Wet Mass): Liver & Gall Bladder [2, 4]: 1.9 ± 0.6 % ID/g
Percentage of Injected 111In Dose Per Gram (Tissue Wet Mass): Lungs [2, 4]: 1.4 ± 0.3 % ID/g
Percentage of Injected 111In Dose Per Gram (Tissue Wet Mass): Muscle [2, 4]: 2.8 ± 0.8 % ID/g
Percentage of Injected 111In Dose Per Gram (Tissue Wet Mass): Spleen [2, 4]: 0.29 ± 0.07 % ID/g
Percentage of Injected 111In Dose Per Gram (Tissue Wet Mass): Stomach, Intestines & Contents [2, 4]: 1.5 ± 0.9 % ID/g
Percentage of Injected 111In Dose Per Gram (Tissue Wet Mass): Tumor [2, 4]: 5.5±1.1 % ID/g and 5.6 ± 1.1 % ID/g
Percentage of Injected 111In Dose Per Organ (Tissue): Liver & Gall Bladder [2, 4]: 3.0 ± 1.0 Percentage of Injected 111In D
Percentage of Injected 111In Dose Per Organ (Tissue): Stomach, Intestines & Contents [2, 4]: 5.4 ± 0.8 Percentage of Injected 111In D
Tumor/blood ratio [2, 4]: 111 ± 11
Tumor/kidney ratio [2, 4]: 0.069 ± 0.013
Tumor/liver ratio [2, 4]: 3.0 ± 0.5
Tumor/muscle ratio [2, 4]: 2.1 ± 0.2
Percentage of Injected 111In Dose Per Organ (Tissue): Muscle [2, 4]: 33 ± 9 Percentage of Injected 111In D
Percentage of Injected 111In Dose Per Gram (Tissue Wet Mass): Blood [2, 5]: 0.016 ± 0.010 % ID/g
Percentage of Injected 111In Dose Per Gram (Tissue Wet Mass): Heart [2, 5]: 0.015 ± 0.010 % ID/g
Percentage of Injected 111In Dose Per Gram (Tissue Wet Mass): Kidney (one) [2, 5]: 0.90 ± 0.59 % ID/g
Percentage of Injected 111In Dose Per Gram (Tissue Wet Mass): Liver & Gall Bladder [2, 5]: 0.051 ± 0.029 % ID/g
Percentage of Injected 111In Dose Per Gram (Tissue Wet Mass): Lungs [2, 5]: 0.041 ± 0.027 % ID/g
Percentage of Injected 111In Dose Per Gram (Tissue Wet Mass): Muscle [2, 5]: 0.080 ± 0.057 % ID/g
Percentage of Injected 111In Dose Per Gram (Tissue Wet Mass): Spleen [2, 5]: 0.028 ± 0.017 % ID/g
Percentage of Injected 111In Dose Per Gram (Tissue Wet Mass): Stomach, Intestines & Contents [2, 5]: 1.7 ± 1.1 % ID/g
Percentage of Injected 111In Dose Per Organ (Tissue): Stomach, Intestines & Contents [2, 5]: 4.6 ± 2.8 Percentage of Injected 111In D
Tumor/blood ratio [2, 5]: 7.5 ± 2.4
Tumor/kidney ratio [2, 5]: 0.12 ± 0.03
Tumor/liver ratio [2, 5]: 2.2 ± 0.6
Tumor/muscle ratio [2, 5]: 1.5 ± 0.7
Percentage of Injected 111In Dose Per Gram (Tissue Wet Mass): Tumor ([2]; 4 Hours, Blocked: co-injection of folic acid dihydrate 4.1 ± 0.4 mg/kg, 0.4 mg/kg): 0.12±0.07 % ID/g
Percentage of Injected 111In Dose Per Organ (Tissue): Muscle [2, 5]: 1.0 ± 0.7 Percentage of Injected 111In D
Percentage of Injected 111In Dose Per Gram (Tissue Wet Mass): Blood [2, 6]: 0.035 ± 0.002 % ID/g
Percentage of Injected 111In Dose Per Gram (Tissue Wet Mass): Heart [2, 6]: 1.2 ± 0.5 % ID/g
Percentage of Injected 111In Dose Per Gram (Tissue Wet Mass): Kidney (one) [2, 6]: 105 ± 7 % ID/g
Percentage of Injected 111In Dose Per Gram (Tissue Wet Mass): Liver & Gall Bladder [2, 6]: 1.2 ± 0.6 % ID/g
Percentage of Injected 111In Dose Per Gram (Tissue Wet Mass): Lungs [2, 6]: 0.72 ± 0.21 % ID/g
Percentage of Injected 111In Dose Per Gram (Tissue Wet Mass): Muscle [2, 6]: 1.9 ± 0.6 % ID/g
Percentage of Injected 111In Dose Per Gram (Tissue Wet Mass): Spleen [2, 6]: 0.27 ± 0.08 % ID/g
Percentage of Injected 111In Dose Per Gram (Tissue Wet Mass): Stomach, Intestines & Contents [2, 6]: 1.2 ± 0.2 % ID/g
Percentage of Injected 111In Dose Per Gram (Tissue Wet Mass): Tumor [2, 6]: 3.6±0.6 % ID/g
Percentage of Injected 111In Dose Per Organ (Tissue): Liver & Gall Bladder [2, 6]: 1.7 ± 0.9 Percentage of Injected 111In D
Percentage of Injected 111In Dose Per Organ (Tissue): Stomach, Intestines & Contents [2, 6]: 3.3 ± 0.6 Percentage of Injected 111In D
Tumor/blood ratio [2, 6]: 105 ± 20
Tumor/kidney ratio [2, 6]: 0.035 ± 0.008
Tumor/liver ratio [2, 6]: 3.7 ± 1.4
Tumor/muscle ratio [2, 6]: 2.0 ± 0.6
primary whole-body clearance pathway ([2]; athymic mice, intravenous administration): Urinary excretion
SMILES: Nc1nc(O)c2nc(CNc3ccc(C(=O)NCCOCCOCCNC(=O)CN(CCN(CCN(CC(=O)O)CC(=O)O)CC(=O)O)CC(=O)O)cc3)cnc2n1.[111In+3] [^111In-CYK4-013]
Percentage of Injected 111In Dose Per Organ (Tissue): Blood [2, 3]: 0.29 ± 0.003 Percentage of Injected 111In D
Percentage of Injected 111In Dose Per Organ (Tissue): Heart [2, 3]: 0.51 ± 0.09 Percentage of Injected 111In D
Percentage of Injected 111In Dose Per Organ (Tissue): Kidney (one) [2, 3]: 15.3 ± 1.2 Percentage of Injected 111In D
Percentage of Injected 111In Dose Per Organ (Tissue): Lungs [2, 3]: 0.69 ± 0.06 Percentage of Injected 111In D
Percentage of Injected 111In Dose Per Organ (Tissue): Spleen [2, 3]: 0.063 ± 0.016 Percentage of Injected 111In D
Percentage of Injected 111In Dose Per Organ (Tissue): Tumor [2, 3]: 0.78 ± 0.47 Percentage of Injected 111In D
Percentage of Injected 111In Dose Per Organ (Tissue): Muscle [2, 3]: 43.6 ± 4.1 Percentage of Injected 111In D
Percentage of Injected 111In Dose Per Organ (Tissue): Blood [2, 4]: 0.078 ± 0.010 Percentage of Injected 111In D
Percentage of Injected 111In Dose Per Organ (Tissue): Heart [2, 4]: 0.41 ± 0.08 Percentage of Injected 111In D
Percentage of Injected 111In Dose Per Organ (Tissue): Kidney (one) [2, 4]: 20.2 ± 1.6 Percentage of Injected 111In D
Percentage of Injected 111In Dose Per Organ (Tissue): Lungs [2, 4]: 0.60 ± 0.01 Percentage of Injected 111In D
Percentage of Injected 111In Dose Per Organ (Tissue): Spleen [2, 4]: 0.049 ± 0.012 Percentage of Injected 111In D
Percentage of Injected 111In Dose Per Organ (Tissue): Tumor [2, 4]: 0.46 ± 0.26 Percentage of Injected 111In D
Percentage of Injected 111In Dose Per Organ (Tissue): Blood [2, 5]: 0.025 ± 0.015 Percentage of Injected 111In D
Percentage of Injected 111In Dose Per Organ (Tissue): Heart [2, 5]: 0.0023 ± 0.0016 Percentage of Injected 111In D
Percentage of Injected 111In Dose Per Organ (Tissue): Kidney (one) [2, 5]: 0.23 ± 0.15 Percentage of Injected 111In D
Percentage of Injected 111In Dose Per Organ (Tissue): Liver & Gall Bladder [2, 5]: 0.074 ± 0.044 Percentage of Injected 111In D
Percentage of Injected 111In Dose Per Organ (Tissue): Lungs [2, 5]: 0.0082 ± 0.0051 Percentage of Injected 111In D
Percentage of Injected 111In Dose Per Organ (Tissue): Spleen [2, 5]: 0.0049 ± 0.0029 Percentage of Injected 111In D
Percentage of Injected 111In Dose Per Organ (Tissue): Tumor [2, 5]: 0.0094 ± 0.0061 Percentage of Injected 111In D
Percentage of Injected 111In Dose Per Organ (Tissue): Blood [2, 6]: 0.055 ± 0.002 Percentage of Injected 111In D
Percentage of Injected 111In Dose Per Organ (Tissue): Heart [2, 6]: 0.18 ± 0.06 Percentage of Injected 111In D
Percentage of Injected 111In Dose Per Organ (Tissue): Kidney (one) [2, 6]: 26.8 ± 2.7 Percentage of Injected 111In D
Percentage of Injected 111In Dose Per Organ (Tissue): Lungs [2, 6]: 0.34 ± 0.03 Percentage of Injected 111In D
Percentage of Injected 111In Dose Per Organ (Tissue): Spleen [2, 6]: 0.055 ± 0.017 Percentage of Injected 111In D
Percentage of Injected 111In Dose Per Organ (Tissue): Tumor [2, 6]: 0.42 ± 0.4 Percentage of Injected 111In D
Percentage of Injected 111In Dose Per Organ (Tissue): Muscle [2, 6]: 23.1 ± 7.0 Percentage of Injected 111In D
